Experiment [1] deals with GluC (2-keto-L-gulonate reductase). Briefly: NADH formation at […] nm, Konelab analyser. It counts as biochemical, Aspergillus niger. To be noted: 400 uM NAD+, 50 mM Tris pH 8; reverse direction.
Experiment [2] shares this test system. Nature of the experiment: NADH consumption at […] nm, Konelab analyser. It counts as biochemical, Aspergillus niger. The note with it: 400 uM NADH, 50 mM Tris pH 7.

By Km is commonly meant the substrate concentration at which the rate is half of its maximum. As for `O=C(O)[C@H](O)[C@@H](O)[C@H](O)[C@@H](O)CO` [L-idonate], in experiment [1], the Km was 20 mM.
Take `O=C(O)C(=O)[C@@H](O)[C@H](O)[C@@H](O)CO` [2-keto-L-gulonate]: the Km in experiment [2] was found to be 30 mM.

(Values after paper PMC4870679, “A novel pathway for fungal D-glucuronate catabolism contains an L-idonate forming 2-keto-L-gulonate reductase” (Scientific Reports, 2016).)
